# Experimental data reported in patent publication US12138322B2, “Method of preventing the development of melanoma” (Vector Vitale IP LLC, priority 2019, dated 2024).
# Marks after values point to notes of the source that are not given here.
# System: B16 melanoma cells
# Test: Experimental model of hematogenous B16 melanoma metastasis (lungs), intravenous administration
# Format: in vivo, C57Bl mice
# Details: IV 60 μg/mouse; for Number of animals in the group with metastases / Number of metastases/mouse (M ± m) / Volume of metastases/mouse (M ± m): lungs at day 26
# Description: An experimental model of hematogenous metastasis was used in the experiment which allowed for the inoculation of B16 melanoma cells. The characteristic of these cells is given in Example 1. The cells were cultured in vitro under standard conditions. For transplantation, tumor cells were removed from the substrate with 0.02% Versene solution and the suspension cellularity and viability were evaluated in the presence of trypan blue in a hemocytometer and the suspension was adjusted to a concentration of […]. Melanoma cells were injected intracutaneously (IC) in 0.05 ml of suspension (0.5×10^6 cells/mouse) into the back area of the animal. Part of the coat on the back of mice was removed with a depilatory cream at 24 hours before tumor cell inoculation. Cells isolated from B16 mouse melanoma were used in the experiment. Cells were cultured in vitro under standard conditions. For inoculation, tumor cells were removed from the substrate with 0.02% Versene solution. The cellularity and viability of the obtained cell suspension were evaluated with a hemocytometer in presence of a trypan blue. Cell concentration was adjusted with saline to 1×10^6 cells/ml. Melanoma cells were injected IV in 0.2 ml of suspension (0.2×10^6 cells/mouse) into the lateral tail vein.
# ^64Zne(Asp)2 was dissolved in deuterium-depleted water. The composition was injected intravenously using a microinjection syringe at a dose of 60 μg of ^64Zne/mouse: two injections at a dose of 30 μg/mouse, each in a volume of 0.3 ml (0.6 ml in total), for 4 hours. The injections were given every other day for 10 days (5 injections in total). The first injection of the inventive composition was given 45 minutes or 24 hours after inoculation of tumor cells. At day 26 after IV injection of tumor cells the lungs were excised from all animals in each group and the number and volume of metastases were then determined. C57Bl mice (8 mice per group) at the age of 12-14 weeks, weighing 25-27 g were used in the experiment. The conditions in which animals were maintained are described in Example 1 above.
# The ^64Zne(Asp)2 composition was injected intravenously into the animal's lateral tail vein using a Micro-Fine Plus microinjection syringe (Becton Dickinson). The injection site was cleaned with 96% ethanol.
# The animals were divided into experimental groups as follows: • Group No. 1: control group, mice injected IV with B16 melanoma cells+IV injection of the solvent (deuterium-depleted water); • Group No. 2: mice injected IV with B16 melanoma cells+IV injection of ^64Zne(Asp)2 24 hours after the tumor cells were inoculated; • Group No. 3: mice injected IV with B16 melanoma cells+IV injection of ^64Zne(Asp)2 45 minutes after the tumor cells were inoculated
# On day 26 after IV injection of tumor cells the lungs were excised from all animals in each group and the number and volume of metastases were then determined.
# The volume of metastases was calculated using the following formula for the volume of a sphere:
# V= 4/3×πr^3, where V is the metastasis volume (mm^3); r is the metastasis radius (mm).
# [1] = first injection 45 min after tumor cells were inoculated
# [2] = first injection 24 hours after tumor cells were inoculated
compound,measurement,setting,value
"N[C@@H](CC(=O)[O-])C(=O)[O-].[Zn+2] [^64Zne(Asp)2, Zinc L-aspartate]",number and volume of metastases vs. control,45 min or 24 hours after inoculation,statistically significant decrease
same,Number of animals in the group with metastases,[1],75%
same,Number of metastases/mouse (M ± m),[1],4 ± 2
same,Volume of metastases/mouse (M ± m),[1],2.5 ± 1.7* mm^3
same,Number of animals in the group with metastases,[2],75%
same,Number of metastases/mouse (M ± m),[2],6.4 ± 2.5
same,Volume of metastases/mouse (M ± m),[2],3.3 ± 2* mm^3
